The results in this text go back to ChEMBL document CHEMBL3044807, “Synthesis and biological evaluation of new ozonides with improved plant growth regulatory activity” (2009).

Format in all cases: functional
Experiment [1] has as its system Sorghum bicolor. Put plainly: Phytotoxic activity against Sorghum bicolor assessed as root growth inhibition at 5.0 x 10^-4 mol/l measured 15 days after seed sowing under greenhouse trials (reference value: 0.0%). As to conditions: 360 h.
The subject of experiment [2] is Cucumis sativus. Put plainly: Phytotoxic activity against Cucumis sativus (cucumber) assessed as weight of aerial parts at 5.0 x 10^-4 mol/l measured 15 days after seed sowing under greenhouse trials (reference value: 47.0 mg).
The test system of experiment [3] is Sorghum bicolor. As to the kind of experiment: Phytotoxic activity against Sorghum bicolor seedlings assessed as germination at 5x10'-4 mol/l at 28 +/-1 degC after 48 hr by acid-washed sand based radicle elongation assay (reference value: 100%).
The test system of experiment [4] is Sorghum bicolor. As to the kind of experiment: Phytotoxic activity against Sorghum bicolor seedlings assessed as radicle length at 5x10'-4 mol/l at 28 +/-1 degC after 48 hr by acid-washed sand based radicle elongation assay (reference value: 5.1 cm).
The test system of experiment [5] is Cucumis sativus. Put plainly: Phytotoxic activity against Cucumis sativus (cucumber) seedlings assessed as germination at 5x10'-4 mol/l at 28 +/-1 degC after 48 hr by acid-washed sand based radicle elongation assay (reference value: 100%).
Experiment [6] concerns Sorghum bicolor. Put plainly: Phytotoxic activity against Sorghum bicolor seedlings assessed as inhibition of radicle growth at 5x10'-4 mol/l at 28 +/-1 degC after 48 hr by acid-washed sand based radicle elongation assay (reference value: 0.0%).
The subject of experiment [7] is Cucumis sativus. As to the kind of experiment: Phytotoxic activity against Cucumis sativus (cucumber) assessed as aerial part growth inhibition at 5.0 x 10^-4 mol/l measured 15 days after seed sowing under greenhouse trials (reference value: 0.0%). The following applies: 360 h.
Experiment [8] relates to Cucumis sativus. Put plainly: Phytotoxic activity against Cucumis sativus (cucumber) assessed as weight of roots at 5.0 x 10^-4 mol/l measured 15 days after seed sowing under greenhouse trials (reference value: 31.0 mg).
The subject of experiment [9] is Cucumis sativus. As to the kind of experiment: Phytotoxic activity against Cucumis sativus (cucumber) seedlings assessed as inhibition of radicle growth at 5x10'-4 mol/l at 28 +/-1 degC after 48 hr by acid-washed sand based radicle elongation assay (reference value: 0.0%).
The subject of experiment [10] is Sorghum bicolor. Put plainly: Phytotoxic activity against Sorghum bicolor assessed as weight of roots at 5.0 x 10^-4 mol/l measured 15 days after seed sowing under greenhouse trials (reference value: 14.0 mg).
For experiment [11], the system named is Sorghum bicolor. Put plainly: Phytotoxic activity against Sorghum bicolor assessed as aerial part growth inhibition at 5.0 x 10^-4 mol/l measured 15 days after seed sowing under greenhouse trials (reference value: 0.0%). The following applies: 360 h.
Experiment [12] has as its system Sorghum bicolor. As to the kind of experiment: Phytotoxic activity against Sorghum bicolor assessed as weight of aerial parts at 5.0 x 10^-4 mol/l measured 15 days after seed sowing under greenhouse trials (reference value: 19.0 mg).
Experiment [13] concerns Cucumis sativus. As to the kind of experiment: Phytotoxic activity against Cucumis sativus (cucumber) seedlings assessed as radicle length at 5x10'-4 mol/l at 28 +/-1 degC after 48 hr by acid-washed sand based radicle elongation assay (reference value: 4.8 cm).
The test system of experiment [14] is Cucumis sativus. As to the kind of experiment: Phytotoxic activity against Cucumis sativus (cucumber) assessed as root growth inhibition at 5.0 x 10^-4 mol/l measured 15 days after seed sowing under greenhouse trials (reference value: 0.0%). The following applies: 360 h.
The subject of experiment [15] is Urochloa decumbens. As to the kind of experiment: Phytotoxic activity against Urochloa decumbens assessed as weight of aerial parts at 5.0 x 10^-4 mol/l measured 21 days after seed sowing under greenhouse trials (reference value: 22.0 mg).
In experiment [16] the test system is Ipomoea grandifolia. As to the kind of experiment: Phytotoxic activity against Ipomoea grandifolia assessed as weight of root at 5.0 x 10^-4 mol/l measured 21 days after seed sowing under greenhouse trials (reference value: 18.4 mg).
The test system of experiment [17] is Ipomoea grandifolia. Put plainly: Phytotoxic activity against Ipomoea grandifolia assessed as aerial part growth inhibition at 5.0 x 10^-4 mol/l measured 21 days after seed sowing under greenhouse trials (reference value: 0.0%). As to conditions: 504 h.
The subject of experiment [18] is Ipomoea grandifolia. Put plainly: Phytotoxic activity against Ipomoea grandifolia assessed as root growth inhibition at 5.0 x 10^-4 mol/l measured 21 days after seed sowing under greenhouse trials (reference value: 0.0%). The following applies: 504 h.
In experiment [19] the test system is Urochloa decumbens. As to the kind of experiment: Phytotoxic activity against Urochloa decumbens assessed as weight of root at 5.0 x 10^-4 mol/l measured 21 days after seed sowing under greenhouse trials (reference value: 21.2 mg).
The subject of experiment [20] is Urochloa decumbens. Put plainly: Phytotoxic activity against Urochloa decumbens assessed as root growth inhibition at 5.0 x 10^-4 mol/l measured 21 days after seed sowing under greenhouse trials (reference value: 0.0%). The following applies: 504 h.
Experiment [21] relates to Urochloa decumbens. Put plainly: Phytotoxic activity against Urochloa decumbens assessed as aerial part growth inhibition at 5.0 x 10^-4 mol/l measured 21 days after seed sowing under greenhouse trials (reference value: 0.0%). As to conditions: 504 h.
The subject of experiment [22] is Ipomoea grandifolia. Put plainly: Phytotoxic activity against Ipomoea grandifolia assessed as weight of aerial parts at 5.0 x 10^-4 mol/l measured 21 days after seed sowing under greenhouse trials (reference value: 17.8 mg).

In general, inhibition refers to how much of the control response was suppressed. Regarding `CC1=C2CCC(C)C[C@@]23O[C@H]1[C@H](C)C(=O)[C@H]3C` (stereo partly drawn), the inhibition at 500 µM amounted to 6.2% in [1]; 71.4% in [6]; 5.9% in experiment [7]; 72.4% in experiment [9]; 26.3% in experiment [11]; 34.4% in experiment [14]. Also, the Activity was found to be 44.2 mg in [2]; 1.5 cm in experiment [4]; 20.3 mg in experiment [8]; 13.1 mg in experiment [10]; 14 mg in experiment [12]; 1.3 cm in experiment [13]. Besides, the germination % at 500 µM in experiment [3] and in [5] was 96% throughout.

With `O=C1[C@@H]2CCCC[C@@H]1[C@@H]1C=C[C@@H]2O1`, the inhibition at 500 µM is 6.2% in experiment [1]; 62% in [6]; 30.4% in [7]; 82.2% in experiment [9]; 4.5% in [11]; 47.3% in [14]. Besides, the Activity is 32.7 mg in experiment [2]; 1.9 cm in [4]; 16.5 mg in experiment [8]; 13.1 mg in [10]; 18.1 mg in experiment [12]; 0.9 cm in [13]. The figures for the germination % at 500 µM in [3] and in experiment [5] were 93% and 90%, respectively.

On to `C[C@@]12C=C[C@H](O1)[C@H]1CCCC[C@H]2C1=O`, for which the inhibition at 500 µM in experiment [1] came to 30.7%; in experiment [6], 58.9%; in [7], 44.6%; in experiment [9] it was 74.7%; in experiment [11] it was 42.6%; in experiment [14], 43.1%. The Activity in [2] is 26 mg; in [4], 2.1 cm; in experiment [8], 17.6 mg; in experiment [10], 9.7 mg; in [12] it was 10.9 mg; in experiment [13], 1.2 cm. Besides, the germination % at 500 µM in experiment [3] was 99%; in [5], 95%.

Turning to `CC[C@@]12C=C[C@H](O1)[C@H]1CCCC[C@H]2C1=O`, the inhibition at 500 µM in experiment [1] stood at 49%; in [6], 64.2%; in experiment [7] it was 69.2%; in [9], 73.2%; in experiment [11], 48.8%; in [14], 49.2%. Moreover, the Activity in experiment [2] was determined as 14.5 mg; in experiment [4], 1.8 cm; in [8], 15.8 mg; in experiment [10], 7.7 mg; in experiment [12] it was 9.7 mg; in experiment [13] it was 1.3 cm. The germination % at 500 µM in experiment [3] and in experiment [5] was 100% throughout.

`CC1=C[C@@H]2O[C@]1(C)[C@H]1CCCC[C@H]2C1=O`: the inhibition at 500 µM came out at 49.6% in [1]; 82.5% in [6]; 65.4% in [7]; 82.1% in experiment [9]; 47.4% in experiment [11]; 62.1% in [14]. In addition, the Activity is listed as 16.3 mg in experiment [2]; 0.9 cm in experiment [4]; 11.7 mg in experiment [8]; 7.1 mg in experiment [10]; 10 mg in experiment [12]; 0.9 cm in [13]. Besides, the germination % at 500 µM turned out to be 79% in experiment [3] and 96% in [5].

On to `C[C@@]12C=C[C@](C)(O1)[C@H]1CCCC[C@H]2C1=O`, for which the inhibition at 500 µM in experiment [1] came out at 14.8%; in experiment [6], 83.4%; in experiment [7] it was 15.6%; in experiment [9], 70.7%; in experiment [11], 32.9%; in [14], 66.2%. Moreover, the Activity in experiment [2] worked out at 39.7 mg; in experiment [4], 0.9 cm; in experiment [8] it was 10.5 mg; in experiment [10] it was 11.9 mg; in experiment [12], 12.7 mg; in [13], 1.4 cm. Moreover, the germination % at 500 µM turned out to be 100% in experiment [3] and 82% in experiment [5].

Regarding `CC12OC(C3OOC1O3)C1CCCCC2C1=O` (mixture of isomers), the inhibition at 500 µM turned out to be 11.8% in experiment [1]; 71.5% in experiment [6]; 63.9% in experiment [7]; 52% in [9]; 20% in [11]; 65.9% in experiment [14]. Moreover, the Activity in experiment [2] came to 17 mg; in experiment [4] it was 1.5 cm; in experiment [8], 10.6 mg; in [10], 12.7 mg; in experiment [12] it was 15.4 mg; in [13], 2.3 cm. In addition, the results for the germination % at 500 µM in experiment [3] and in experiment [5] were 96% and 70%, respectively.

In the case of `CC12OOC(O1)C1OC2(C)C2CCCCC1C2=O` (mixture of isomers), the inhibition at 500 µM in [1] stood at 34.6%; in experiment [6], 80.2%; in experiment [7] it was 29.9%; in experiment [9], 84.2%; in [11] it was 41.8%; in [14], 57.4%. In addition, the Activity is 32.9 mg in experiment [2]; 1 cm in experiment [4]; 13.2 mg in [8]; 9.2 mg in experiment [10]; 11.1 mg in experiment [12]; 0.8 cm in experiment [13]. Also, the germination % at 500 µM in experiment [3] and in experiment [5] was 100% each time.

As for `CC1CCC23OOC(C)(O2)C2OC3(C1)C(C)C(=O)C2C` (mixture of isomers), the inhibition at 500 µM in [1] was 9.1%; in experiment [6], 72.1%; in experiment [7] it was 36.9%; in [9], 39.9%; in [11], 6.8%; in experiment [14], 50.8%. For the same compound, the Activity in [2] amounted to 29.7 mg; in [4], 1.4 cm; in [8], 15.3 mg; in experiment [10] it was 12.7 mg; in experiment [12], 17.7 mg; in experiment [13] it was 2.9 cm. Also, the germination % at 500 µM worked out at 96% in experiment [3] and 93% in experiment [5].

As for `CCC1C(=O)C(CC)C23CC(C)CCC24OOC(C)(O4)C1O3` (mixture of isomers), the inhibition at 500 µM in [1] was determined as 6.5%; in [6], 55.1%; in experiment [7], 36%; in experiment [9], 55.6%; in [11], 39.6%; in experiment [14] it was 6.5%. The Activity in [2] is reported as 30.1 mg; in experiment [4], 2.3 cm; in experiment [8], 29 mg; in experiment [10], 13.1 mg; in experiment [12] it was 11.5 mg; in [13], 2.1 cm. In addition, the values for the germination % at 500 µM in experiment [3] and in experiment [5] were 100% and 96%, respectively.

`C[C@@H]1CC[C@H]2[C@@H](C)C(=O)O[C@@H]3O[C@@]4(C)CC[C@@H]1[C@]32OO4` [ARTEMISININ]: the Activity is 2.9 mg in experiment [15], 0.7 mg in [16], 3.1 mg in experiment [19] and 1.2 mg in experiment [22]. Further, the inhibition at 500 µM was found to be 93.6% in experiment [17], 95% in experiment [18], 95% in experiment [20] and 93.6% in experiment [21].
